Experimental data: the supplement of paper PMC10307832

Tests used:
Test in all cases: relative viability (nuclei count vs DMSO), 5 days (fraction); higher = more cells survive
RU-SKI 43 + Foretinib = compound: CC[C@@H](C)CNCC(=O)N1CCC2=C([C@@H]1COC3=CC=CC(=C3)C)C=CS2 [RU-SKI 43] + COc1cc2c(Oc3ccc(NC(=O)C4(C(=O)Nc5ccc(F)cc5)CC4)cc3F)ccnc2cc1OCCCN1CCOCC1 [Foretinib] (partner 0.25 µM)
Procedure, shortened: (§1)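 Dosing by pin tool came one day after lung cancer cell lines were seeded in 1536-well plates, using either one drug or a fixed anchor-drug dose plus five library-drug doses (not always all listed) in √10 steps. After 5 days, nuclei were counted on 4× images. Relative viability is treated-well nuclei count divided by vehicle-well nuclei count, and values are medians of duplicate plates.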

Irinotecan + Luminespib = compound: CCc1c2c(nc3ccc(OC(=O)N4CCC(N5CCCCC5)CC4)cc13)-c1cc3c(c(=O)n1C2)COC(=O)[C@]3(O)CC [Irinotecan] + CCNC(=O)c1noc(-c2cc(C(C)C)c(O)cc2O)c1-c1ccc(CN2CCOCC2)cc1 [Luminespib] (partner 0.01 µM)
Procedure, shortened: as §1

Irinotecan + Foretinib = compound: CCc1c2c(nc3ccc(OC(=O)N4CCC(N5CCCCC5)CC4)cc13)-c1cc3c(c(=O)n1C2)COC(=O)[C@]3(O)CC [Irinotecan] + COc1cc2c(Oc3ccc(NC(=O)C4(C(=O)Nc5ccc(F)cc5)CC4)cc3F)ccnc2cc1OCCCN1CCOCC1 [Foretinib] (partner 0.25 µM)
Procedure, shortened: as §1

MK-8033 + AZD7762 = compound: Cn1cc(-c2cnc3ccc4ccc(CS(=O)(=O)NCc5ccccn5)cc4c(=O)c3c2)cn1 [MK-8033] + NC(=O)Nc1cc(-c2cccc(F)c2)sc1C(=O)N[C@H]1CCCNC1 [AZD7762] (partner 0.2 µM)
Procedure, shortened: as §1

Row | Cell Line | relative viability (RU-SKI 43 + Foretinib; first compound 0.1 µM) | relative viability (RU-SKI 43 + Foretinib; first compound 0.3162 µM) | relative viability (RU-SKI 43 + Foretinib; first compound 1 µM) | relative viability (RU-SKI 43 + Foretinib; first compound 3.162 µM) | relative viability (RU-SKI 43 + Foretinib; first compound 10 µM) | relative viability (Irinotecan + Luminespib; first compound 0.6325 µM) | relative viability (Irinotecan + Luminespib; first compound 2 µM) | relative viability (Irinotecan + Luminespib; first compound 6.325 µM) | relative viability (Irinotecan + Luminespib; first compound 20 µM) | relative viability (Irinotecan + Foretinib; first compound 0.6325 µM) | relative viability (Irinotecan + Foretinib; first compound 2 µM) | relative viability (Irinotecan + Foretinib; first compound 6.325 µM) | relative viability (Irinotecan + Foretinib; first compound 20 µM) | relative viability (MK-8033 + AZD7762; first compound 0.02 µM) | relative viability (MK-8033 + AZD7762; first compound 0.06325 µM) | relative viability (MK-8033 + AZD7762; first compound 0.2 µM) | relative viability (MK-8033 + AZD7762; first compound 0.6325 µM) | relative viability (MK-8033 + AZD7762; first compound 2 µM)
1 | NCI-H2009 | 1.21 | 1.42 | 1.31 | 1.24 | 1.17 | 0.863 | 0.486 | 0.25 | 0.252 | 0.973 | 0.688 | 0.311 | 0.16 | – | – | – | – | –
2 | HCC-366 | 0.975 | 1.01 | 0.994 | 1.04 | 0.811 | – | – | – | – | 0.346 | 0.114 | 0.0566 | 0.0694 | 0.367 | 0.231 | 0.228 | 0.291 | 0.256
3 | NCI-H1703 | 0.388 | 0.33 | 0.297 | 0.337 | 0.295 | – | – | – | – | 0.321 | 0.433 | 0.512 | 0.367 | 0.109 | 0.117 | 0.124 | 0.108 | 0.12
4 | NCI-H1792 | – | – | – | – | – | 0.726 | 0.491 | 0.34 | 0.321 | – | – | – | – | 0.582 | 0.502 | 0.617 | 0.7 | 0.515
5 | NCI-H2023 | 0.954 | 1.1 | 0.82 | 0.828 | 0.558 | 0.467 | 0.256 | 0.127 | 0.0843 | 0.832 | 0.842 | 0.295 | 0.116 | – | – | – | – | –
6 | HCC-44 | – | – | – | – | – | – | 0.456 | 0.215 | 0.225 | – | – | – | – | 1.04 | 1.04 | 0.994 | 1.06 | 1.02
7 | NCI-H522 | – | – | – | – | – | – | 0.645 | 0.468 | 0.495 | – | – | – | – | 0.831 | 0.748 | 0.809 | 0.881 | 0.97
8 | Calu-6 | 0.958 | 0.976 | 0.973 | 0.859 | 0.724 | – | – | – | – | 0.605 | 0.429 | 0.168 | 0.087 | – | – | – | – | –
9 | SK-LU-1 | 0.831 | 0.979 | 0.826 | 0.836 | 0.638 | 0.202 | 0.241 | 0.244 | 0.236 | 0.623 | 0.382 | 0.295 | 0.224 | – | – | – | – | –
10 | SW 1573 | 0.997 | 1.21 | 0.843 | 1.04 | 0.887 | 0.232 | 0.269 | 0.195 | 0.148 | 0.848 | 0.786 | 0.463 | 0.195 | – | – | – | – | –
11 | NCI-H661 | 1.01 | 1.29 | 1 | 1.09 | 0.894 | 0.848 | 0.822 | 0.41 | 0.195 | 0.957 | 0.913 | 0.605 | 0.397 | – | – | – | – | –
